EP0470795A1, “Process for the manufacture of nitriles” (ZENECA LIMITED, priority 1990, dated 1992)

Tested on: angiotensin II-induced pressor responses
Assay: Test C: antagonism of angiotensin II-induced pressor responses in terminally-anaesthetised or conscious rats
Type: in vivo
Conditions: Rattus norvegicus, iv; i.v. administration; read-out: ED₅₀
Method: This in vivo test involves using terminally-anaesthetised or conscious rats in which an arterial catheter has been implanted under anaesthesia for the measurement of changes in blood pressure. The AII antagonistic effects of the test compound following oral or parenteral administration, are assessed against angiotensin II-induced pressor responses. To ensure that the effect is specific, the effect of the test compound on vasopressin-induced pressor responses may also be determined in the same preparation.

## Cc1cc(OCc2ccc(-c3ccccc3-c3nnn[nH]3)cc2)c2ccccc2n1.Cl [2-methyl-4-[(2′-(1H-tetrazol-5-yl)biphenyl-4-yl)methoxy]quinoline hydrochloride]
  ED50: 0.5 mg/kg
